Structures are written as SMILES. Where two headings read alike, the source gives them in different places.

The target in assay [1] is A2 adenosine receptor (Cavia porcellus, UniProt P46616).
Protocol: (§1) The perfusion buffer consisted of 120 mM NaCl, 27 mM NaHCO3, 3.7 mM KCl, 1.3 mM KH2 PO4, 0.64 mM MgSO4, 1.3 mM CaCl2, 2 mM pyruvate, and 5 mM glucose. […] Continuous drainage of the left ventricle by means of a catheter inserted across the mitral valve insured that this cardiac chamber did no external work. An electrode in the right ventricle monitored the electrocardiogram. Timed collections of cardiac effluent in a graduated cylinder during the steady-state phase of the flow responses to compound administration measured total coronary flow, which was also monitored by an in-line electromagnetic flowmeter in the aortic perfusion cannula. The quotient of the ratio of compound infusion (mol/min) divided by coronary flow rate (L/min) equals agonist concentration in the perfusate. […] The quotient of the EC50 of stimulus-QRS prolongation divided by the EC50 of coronary vasodilation provided an index of selectivity.
Assay [2] deals with T1, A1 adenosine receptor (Cavia porcellus, UniProt P47745).
T1 sequence (P47745 1-326): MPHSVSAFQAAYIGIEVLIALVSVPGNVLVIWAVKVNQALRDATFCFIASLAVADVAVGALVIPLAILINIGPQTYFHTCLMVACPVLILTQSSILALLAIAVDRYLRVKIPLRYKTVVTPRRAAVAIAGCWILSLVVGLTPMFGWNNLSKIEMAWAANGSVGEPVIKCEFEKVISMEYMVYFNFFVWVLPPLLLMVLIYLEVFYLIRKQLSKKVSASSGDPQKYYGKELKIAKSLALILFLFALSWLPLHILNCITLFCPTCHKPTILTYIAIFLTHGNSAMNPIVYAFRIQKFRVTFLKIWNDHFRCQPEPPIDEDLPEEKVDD
Protocol: as §1

Assay [3] deals with A2 adenosine receptor. Conditions: read-out: EC50 for coronary vasodilation; coronary arteries (vasodilation); cited from earlier work.
The target in assay [4] is T1, A1 adenosine receptor. The note with it: BIOASSAY RESULTS table.
Protocol: as §1
For assay [5] the following is noted: in words; cited from earlier work.
In a further assay the test system is guinea pig heart. The assay is described as follows: Second degree heart block (Wenckebach point), Langendorff guinea pig heart. Conditions: for minimal effective concentration: Cavia porcellus, read-out: Wenckbach. The procedure:
An electrode in the right ventricle monitored the electrocardiogram. […] The rate of agonist infusion was increased stepwise at intervals of 3-4 minutes until the appearance of second degree heart block (Wenckebach point).

The subject of assay [6] is A2 adenosine receptor.
Protocol: as §1
Where [7] appears, read: -LOG EC50 A2, BIOASSAY RESULTS table, A2.
The mark [8] stands for this setting: -LOG EC50 A1, BIOASSAY RESULTS table, A1.
[9] abbreviates: concentration at appearance of second degree heart block.
Setting [10] is: EC50 -CF, coronary vasodilation, perfused guinea pig heart paced at 260 beats/min.
Setting [11] is: EC50 -SQPR, prolongation of stimulus-QRS interval by 50% of maximum response, perfused guinea pig heart.
The mark [12] stands for this setting: EC50-SQPR divided by EC50-CF, >1 indicates selectivity for A2 adenosine receptor.

Sequence of A2 adenosine receptor (Cavia porcellus, UniProt P46616) (P46616 whole entry): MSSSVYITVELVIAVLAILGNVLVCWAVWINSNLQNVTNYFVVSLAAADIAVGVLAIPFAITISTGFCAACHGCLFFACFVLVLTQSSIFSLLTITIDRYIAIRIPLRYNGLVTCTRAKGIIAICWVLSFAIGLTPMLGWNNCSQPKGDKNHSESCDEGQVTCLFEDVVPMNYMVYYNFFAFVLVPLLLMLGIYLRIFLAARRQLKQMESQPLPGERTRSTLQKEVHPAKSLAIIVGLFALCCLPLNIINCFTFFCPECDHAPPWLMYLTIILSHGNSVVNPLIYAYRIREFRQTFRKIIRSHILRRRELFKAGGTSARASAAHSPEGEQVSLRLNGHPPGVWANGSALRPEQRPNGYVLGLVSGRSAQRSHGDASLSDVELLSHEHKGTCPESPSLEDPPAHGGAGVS

As usually defined, the EC50 is the concentration needed to bring the measured effect to its halfway point. For the compound `CCCCCC=NNc1nc(N)c2ncn([C@@H]3O[C@H](CO)[C@@H](O)[C@H]3O)c2n1` [1-Pent, H], the results for the EC50 on A2 adenosine receptor [1] (setting [7]) and at A1 adenosine receptor [2] (setting [8]) were 0.00102 µM and 38.9 µM, respectively.

In the case of `Nc1nc(OCCC2CCCCC2)nc2c1ncn2[C@@H]1O[C@H](CO)[C@@H](O)[C@H]1O` [2-(2-cyclohexylethoxy)adenosine], the EC50 at A2 adenosine receptor [3] is 0.001 µM.

On to `Nc1nc(N)c2ncn([C@@H]3O[C@H](CO)[C@@H](O)[C@H]3O)c2n1` [2-Amino-adenosine, reference compound], for which the EC50 is 0.224 µM on A2 adenosine receptor [1] (setting [7]) and 11.2 µM at A1 adenosine receptor [2].

The compound `Nc1nc(NN=CCCC2CCCCC2)nc2c1ncn2[C@@H]1O[C@H](CO)[C@@H](O)[C@H]1O` [2-C Hexylethyl, H] had a 50% effective concentration (EC50) at A1 adenosine receptor [2] (setting [8]) of 9.77 µM.

As to `Nc1nc(NN=CCCCC2CCCCC2)nc2c1ncn2[C@@H]1O[C@H](CO)[C@@H](O)[C@H]1O` [3-C Hexylpropyl, H], the EC50 at A2 adenosine receptor [1] (setting [7]) is 0.00178 µM; on A1 adenosine receptor [2] (setting [8]), 66.1 µM.

Turning to `Nc1nc(NN=CC2CC=CCC2)nc2c1ncn2[C@@H]1O[C@H](CO)[C@@H](O)[C@H]1O` (some centres unmarked) [3-Cyclo-hexenyl, H], at A1 adenosine receptor [4], the “-LOG EC50 A1” value was found to be 4.86.

Turning to `CC(C)CCC=NNc1nc(N)c2ncn([C@@H]3O[C@H](CO)[C@@H](O)[C@H]3O)c2n1` [3-Me-1-Bu, H], the EC50 was 0.000468 µM at A2 adenosine receptor [1] (setting [7]) and 20.9 µM at A1 adenosine receptor [2] (setting [8]).

Regarding `Nc1nc(NN=CCCCc2ccccc2)nc2c1ncn2[C@@H]1O[C@H](CO)[C@@H](O)[C@H]1O` [3-Ph Propyl, H], the 50% effective concentration (EC50) at A2 adenosine receptor [1] (setting [7]) was 0.00195 µM; at A1 adenosine receptor [2] (setting [8]), 66.1 µM.

In the case of `Nc1ncnc2c1ncn2[C@@H]1O[C@H](CO)[C@@H](O)[C@H]1O` [Adenosine, 9-β-D-ribofuranosyl-9H-purin-6-amine], the cardiovascular activity entry in assay [5] is “hypotensive and bradycardia activity”.

For `Nc1nc(NN=Cc2ccc(Cl)cc2)nc2c1ncn2[C@@H]1O[C@H](CO)[C@@H](O)[C@H]1O` [Example 1, 6-amino-2-{2-[(4-chlorophenyl)methylene]diazanyl}-9-(β-D-ribofuranosyl)-9H-purine], the minimal effective concentration in the assay on guinea pig heart (setting [9]) came out at 30.4 µM.

As to `Nc1nc(NN=Cc2ccc(F)cc2)nc2c1ncn2[C@@H]1O[C@H](CO)[C@@H](O)[C@H]1O` [Example 2, 6-amino-2-{2-[(4-fluorophenyl)methylene]diazanyl}-9-(β-D-ribofuranosyl)-9H-purine], the concentration for a half-maximal effect (EC50) on A2 adenosine receptor [1] (setting [7]) was 0.00245 µM; at A2 adenosine receptor [1] (setting [10]) it was 0.0025 µM; at A1 adenosine receptor [2] (setting [11]), 12.6 µM. Also, the “Selectivity (SQPR/CF)” value in the assay on A2 adenosine receptor [6] (setting [12]) is listed as 8,500. Moreover, in the assay with guinea pig heart (setting [9]), the minimal effective concentration turned out to be 30.9 µM.

For the compound `Nc1nc(NN=CC2CCCCC2)nc2c1ncn2[C@@H]1O[C@H](CO)[C@@H](O)[C@H]1O` [Example 3, 6-amino-2-{2-[(cyclohexyl)methylene]diazanyl}-9-(β-D-ribofuranosyl)-9H-purine], the EC50 on A2 adenosine receptor [1] (setting [7]) is 0.000257 µM; on A2 adenosine receptor [1] (setting [10]), 0.0003 µM; at A1 adenosine receptor [2] (setting [8]), 3.55 µM; on A1 adenosine receptor [2] (setting [11]), 3.55 µM. For the same compound, the “Selectivity (SQPR/CF)” value with A2 adenosine receptor [6] was 16,472. In addition, the minimal effective concentration in the assay with guinea pig heart amounted to 5.92 µM.

In the case of `Nc1nc(NN=Cc2ccc3ccccc3c2)nc2c1ncn2[C@@H]1O[C@H](CO)[C@@H](O)[C@H]1O` [Example 4, 6-amino-2-{2-[(2-naphthyl)methylene]diazanyl}-9-(β-D-ribofuranosyl)-9H-purine], the EC50 at A2 adenosine receptor [1] (setting [7]) is 0.00417 µM; at A2 adenosine receptor [1] (setting [10]) it was 0.0042 µM; at A1 adenosine receptor [2] (setting [8]) it was 2.63 µM. In the assay on A2 adenosine receptor [6] (setting [12]), the “Selectivity (SQPR/CF)” value is recorded as 767. In the assay with guinea pig heart (setting [9]), the minimal effective concentration was 10.1 µM.

Consider `Nc1nc(NN=Cc2cccnc2)nc2c1ncn2[C@@H]1O[C@H](CO)[C@@H](O)[C@H]1O` [Example 5, 6-amino-2-{2-[(3-pyridyl)methylene]diazanyl}-9-(β-D-ribofuranosyl)-9H-purine], for which, at A2 adenosine receptor [1] (setting [10]), the EC50 was determined as 0.015 µM. For the same compound, in the assay on A2 adenosine receptor [6] (setting [12]), the “Selectivity (SQPR/CF)” value is 2,657. The minimal effective concentration in the assay on guinea pig heart (setting [9]) was 63.5 µM.

As to `Nc1nc(NN=Cc2ccncc2)nc2c1ncn2[C@@H]1O[C@H](CO)[C@@H](O)[C@H]1O` [Example 6, 6-amino-2-{2-[(4-pyridyl)methylene]diazanyl}-9-(β-D-ribofuranosyl)-9H-purine], the EC50 on A2 adenosine receptor [1] (setting [10]) came to 0.011 µM. The “Selectivity (SQPR/CF)” value in the assay on A2 adenosine receptor [6] (setting [12]) is 2,817. Besides, the minimal effective concentration in the assay with guinea pig heart (setting [9]) worked out at 68 µM.

For `Nc1nc(NN=Cc2ccccc2)nc2c1ncn2[C@@H]1O[C@H](CO)[C@@H](O)[C@H]1O` [Example 7, 6-amino-2-{2-(phenylmethylene)diazanyl}-9-(β-D-ribofuranosyl)-9H-purine], the EC50 on A2 adenosine receptor [1] (setting [7]) was 0.00229 µM; on A2 adenosine receptor [1] (setting [10]), 0.0023 µM; at A1 adenosine receptor [2] (setting [8]), 83.2 µM. Moreover, the “Selectivity (SQPR/CF)” value with A2 adenosine receptor [6] (setting [12]) is 43,347. In the assay on guinea pig heart (setting [9]), the minimal effective concentration turned out to be 216 µM.

For the compound `NNc1nc(N)c2ncn([C@@H]3O[C@H](CO)[C@@H](O)[C@H]3O)c2n1` [Example 8, 6-amino-2-diazanyl-9-(β-D-ribofuranosyl)-9H-purine, reference compound], the EC50 at A2 adenosine receptor [1] (setting [7]) is 0.0794 µM; on A2 adenosine receptor [1] (setting [10]) it was 0.0804 µM; on A1 adenosine receptor [2] (setting [8]), 20 µM; on A1 adenosine receptor [2] (setting [11]), 14.6 µM. Moreover, the “Selectivity (SQPR/CF)” value in the assay with A2 adenosine receptor [6] (setting [12]) is given as 301. Further, in the assay on guinea pig heart (setting [9]), the minimal effective concentration was determined as 18.2 µM.

With `Cc1ccc(C=NNc2nc(N)c3ncn([C@@H]4O[C@H](CO)[C@@H](O)[C@H]4O)c3n2)cc1` [Example 9, 6-amino-2-{2-[(4-methylphenyl)methylene]diazanyl}-9-(β-D-ribofuranosyl)-9H-purine], on A1 adenosine receptor [2] (setting [8]), the EC50 was 39.8 µM. Moreover, the Wenckbach with guinea pig heart (second degree heart block, unit printed nmol (Example 9)) is 103,514 nmol.

As to `CC(=NNc1nc(N)c2ncn([C@@H]3O[C@H](CO)[C@@H](O)[C@H]3O)c2n1)c1ccc(F)cc1` [Example 10, 6-amino-2-{2-[1-(4-fluorophenyl)ethylidene]diazanyl}-9-(β-D-ribofuranosyl)-9H-purine], the EC50 at A2 adenosine receptor [1] (setting [7]) was 0.00324 µM; at A2 adenosine receptor [1] (setting [10]) it was 0.0032 µM; on A1 adenosine receptor [2] (setting [8]), 4.17 µM. Also, the “Selectivity (SQPR/CF)” value in the assay with A2 adenosine receptor [6] (setting [12]) is recorded as 1,822. For the same compound, the minimal effective concentration in the assay on guinea pig heart (setting [9]) amounted to 7.3 µM.

With `COc1ccc(C=NNc2nc(N)c3ncn([C@@H]4O[C@H](CO)[C@@H](O)[C@H]4O)c3n2)cc1` [Example 11, 6-amino-2-{2-[(4-methoxyphenyl)methylene]diazanyl}-9-(β-D-ribofuranosyl)-9H-purine], in the assay with guinea pig heart (setting [9]), the minimal effective concentration stood at 50 µM.

As for `CC(=NNc1nc(N)c2ncn([C@@H]3O[C@H](CO)[C@@H](O)[C@H]3O)c2n1)c1ccccc1` [Example 12, 6-amino-2-{2-[1-(phenyl)ethylidene]diazanyl}-9-(β-D-ribofuranosyl)-9H-purine], the EC50 on A2 adenosine receptor [1] (setting [10]) came out at 0.013 µM. Besides, the “Selectivity (SQPR/CF)” value in the assay on A2 adenosine receptor [6] (setting [12]) is on record as 380. The minimal effective concentration in the assay on guinea pig heart (setting [9]) is 11 µM.

As for `Nc1nc(NN=Cc2ccccn2)nc2c1ncn2[C@@H]1O[C@H](CO)[C@@H](O)[C@H]1O` [Example 13, 6-amino-2-{2-[(2-pyridyl)methylene]diazanyl}-9-(β-D-ribofuranosyl)-9H-purine], at A2 adenosine receptor [1] (setting [10]), the EC50 stood at 0.0057 µM. In the assay with A2 adenosine receptor [6] (setting [12]), the “Selectivity (SQPR/CF)” value is 42,000. Further, in the assay with guinea pig heart (second degree heart block, unit inferred), the minimal effective concentration came to 110 µM.

Turning to `Nc1nc(NN=Cc2cccc3ccccc23)nc2c1ncn2[C@@H]1O[C@H](CO)[C@@H](O)[C@H]1O` [Example 14, 6-amino-2-{2-[(1-naphthyl)methylene]diazanyl}-9-(β-D-ribofuranosyl)-9H-purine], the 50% effective concentration (EC50) on A2 adenosine receptor [1] (setting [10]) came out at 0.0095 µM. Also, the “Selectivity (SQPR/CF)” value in the assay with A2 adenosine receptor [6] (setting [12]) was 110. The minimal effective concentration in the assay on guinea pig heart (setting [9]) was found to be 2 µM.

The compound `Nc1nc(NN=Cc2cccs2)nc2c1ncn2[C@@H]1O[C@H](CO)[C@@H](O)[C@H]1O` [Example 15, 6-amino-2-{2-[(2-thienyl)methylene]diazanyl}-9-(β-D-ribofuranosyl)-9H-purine] displayed an EC50 at A2 adenosine receptor [1] (setting [10]) of 0.014 µM. Besides, the “Selectivity (SQPR/CF)” value in the assay with A2 adenosine receptor [6] (setting [12]) is reported as 4400. In addition, in the assay with guinea pig heart (setting [9]), the minimal effective concentration was 93 µM.

On A2 adenosine receptor [1] (setting [10]), `Cc1cccc(C=NNc2nc(N)c3ncn([C@@H]4O[C@H](CO)[C@@H](O)[C@H]4O)c3n2)c1` [Example 16, 6-amino-2-{2-[(3-methylphenyl)methylene]diazanyl}-9-(β-D-ribofuranosyl)-9H-purine] returned a concentration giving a half-maximal response (EC50) of 0.0044 µM. Further, the “Selectivity (SQPR/CF)” value in the assay with A2 adenosine receptor [6] came to 4700. In addition, the minimal effective concentration in the assay with guinea pig heart turned out to be 47 µM.

Source of the values: patent US5278150A, “2-hydrazoadenosines and their utility for the treatmeat of vascular conditions” (Whitby Research, Inc., priority 1992, dated 1994).
